Here are results for nine molecules from US20240148821A1, “PHARMACEUTICAL USE OF CYCLIC PEPTIDE COMPOUND” (CHUGAI SEIYAKU KABUSHIKI KAISHA, priority 2021, published 2024).

Numbered stars: 1 amine (or outer) side, 2 acyl side, 3 side chain; on linkers, the order of the positions; unused ones are H or OH. Bridge positions count the residues as written; N and C are the ends. Square brackets hold non-standard residues; d marks the D form. Peptide text beside a SMILES is read from it. * marks the point of attachment. hPhe(3,5-F2-4-CF3) = N[C@@H](CCc1cc(F)c(C(F)(F)F)c(F)c1)C(=O)O; hPhe(3-Cl-4-CF3) = N[C@@H](CCc1ccc(C(F)(F)F)c(Cl)c1)C(=O)O; NMePhe(4-CF3) = CN[C@@H](Cc1ccc(C(F)(F)F)cc1)C(=O)O; Pro(cis-4-Ph) = O=C(O)[C@@H]1C[C@H](c2ccccc2)CN1; X37 = CC(C)(C)NC(=O)COC[C@H](CC(=O)[*:1])N[*:2]; X36 = O=C([C@H](Cc1cc(F)cc(Cl)c1)N[*:1])[*:2]; NMePhe(4-Cl) = CN[C@@H](Cc1ccc(Cl)cc1)C(=O)O; NMeGly(cPent) = CN[C@H](C(=O)O)C1CCCC1; NMe4Pal = CN[C@@H](Cc1ccncc1)C(=O)O; NMeCha = CN[C@@H](CC1CCCCC1)C(=O)O; Hyp = O=C(O)[C@@H]1C[C@@H](O)CN1; NMeChg = CN[C@H](C(=O)O)C1CCCCC1; NMeI = CC[C@H](C)[C@H](NC)C(=O)O; NMeD = CN[C@@H](CC(=O)O)C(=O)O; NMeL = CN[C@@H](CC(C)C)C(=O)O; NMehSer = CN[C@@H](CCO)C(=O)O; NMeNva = CCC[C@H](NC)C(=O)O; NMeV = CN[C@H](C(=O)O)C(C)C; Morpholide = C1CN(*)CCO1; NMeA = CN[C@@H](C)C(=O)O; NMeAib = CNC(C)(C)C(=O)O; Nle = CCCC[C@H](N)C(=O)O; Piperidide = C1CCN(*)CC1; Ac5c = NC1(C(=O)O)CCCC1; Aze = O=C(O)[C@@H]1CCN1; Sar = CNCC(=O)O

In the experiment the test system is Human pancreatic cancer cell line AsPC-1 (G12D mutation Kras). The experiment can be described thus: AsPC-1 cell growth inhibition (AsPC-1 CGI). It is filed as cell-based. Particulars: read-out: AsPC-1 cell growth inhibition, 50% growth inhibitory concentration (IC50 value); 96 hours, CellTiter-Glo, values classified in ranges. (In general: Cellular ATP, detected with luciferase, serves as a proxy for viable cell number.)
Procedure: Test compounds were serially dilated with dimethyl sulfoxide, and 200 nL was then dispensed to a U-bottom 96-well plate using Labcyte Echo. […] The cell suspension was dispensed to a. plate containing a test compound at 100 μL per well and incubated at 37° C. in a 5% carbon dioxide gas incubator. 96 hours later, 80 μL of CellTiter-Glo (Promega) was added to each well and fluorescence was measured.
As to `CC[C@H](C)[C@@H]1NC(=O)[C@H](CC(C)C)N(C)C(=O)C[C@@H](COCC(=O)NC(C)(C)C)NC(=O)[C@H](C(C)C)N(C)C(=O)C2(CCCC2)NC(=O)[C@@H]2CCCN2C(=O)[C@H](CCc2ccc(C(F)(F)F)c(Cl)c2)NC(=O)CN(C)C(=O)[C@H](CC2CCCCC2)N(C)C(=O)CN(C)C(=O)CN(C)C1=O` [Compound 955] ([NMeL]I[Sar][Sar][NMeCha][Sar][hPhe(3-Cl-4-CF3)]P[Ac5c][NMeV]; linker N-C via X37), the IC50 was more than 500 nM.

As for `CC[C@H](C)[C@@H]1NC(=O)[C@H](CC(C)C)N(C)C(=O)C[C@@H](C(=O)N2CCCCC2)N(C)C(=O)[C@H](CC2CCCCC2)N(C)C(=O)C2(CCCC2)NC(=O)[C@@H]2CCCN2C(=O)[C@H](CCc2ccc(C(F)(F)F)c(Cl)c2)NC(=O)CN(C)C(=O)[C@H](CC2CCCCC2)N(C)C(=O)CN(C)C(=O)CN(C)C1=O` [Compound 577] ([NMeL]I[Sar][Sar][NMeCha][Sar][hPhe(3-Cl-4-CF3)]P[Ac5c][NMeCha][NMeD]-Piperidide; lactam N-11), the IC50 was more than 500 nM. On to `CCCC[C@@H]1NC(=O)[C@H](Cc2cc(F)cc(Cl)c2)NC(=O)CN(C)C(=O)[C@H](Cc2ccc(Cl)cc2)N(C)C(=O)CN(C)C(=O)CN(C)C(=O)[C@H]([C@@H](C)CC)NC(=O)[C@H](CC(C)C)N(C)C(=O)C[C@@H](C(=O)N2CCCCC2)N(C)C(=O)[C@H](CC(C)C)NC(=O)C(C)(C)N(C)C1=O` [Compound 202] ([NMeL]I[Sar][Sar][NMePhe(4-Cl)][Sar][X36][Nle][NMeAib]L[NMeD]-Piperidide; lactam N-11), for which the IC50 is more than 500 nM. As to `CC[C@H](C)[C@@H]1NC(=O)[C@H](CC(C)C)N(C)C(=O)C[C@@H](C(=O)N(C)C)N(C)C(=O)[C@H](C2CCCC2)N(C)C(=O)[C@H](C(C)C)NC(=O)[C@H](Cc2ccncc2)N(C)C(=O)[C@H](CCc2ccc(C(F)(F)F)c(Cl)c2)NC(=O)CN(C)C(=O)[C@H](CC2CCCCC2)N(C)C(=O)[C@@H]2CCN2C(=O)[C@H](C)N(C)C1=O` [Compound 1982] ([NMeL]I[NMeA][Aze][NMeCha][Sar][hPhe(3-Cl-4-CF3)][NMe4Pal]V[NMeGly(cPent)][NMeD]-NMe2; lactam N-11), the IC50 is more than 500 nM.

Regarding `CC[C@H](C)[C@@H]1NC(=O)[C@H](CC(C)C)N(C)C(=O)C[C@@H](C(=O)N2CCCCC2)N(C)C(=O)[C@H](C2CCCCC2)N(C)C(=O)[C@H](C(C)C)NC(=O)[C@@H]2CCCN2C(=O)[C@H](CCc2ccc(C(F)(F)F)c(Cl)c2)NC(=O)CN(C)C(=O)[C@H](CC2CCCCC2)N(C)C(=O)CN(C)C(=O)CN(C)C1=O` [Compound 1157] ([NMeL]I[Sar][Sar][NMeCha][Sar][hPhe(3-Cl-4-CF3)]PV[NMeChg][NMeD]-Piperidide; lactam N-11), the IC50 was more than 500 nM.

Consider `CC[C@H](C)[C@@H]1NC(=O)[C@H](CC(C)C)N(C)C(=O)C[C@@H](C(=O)N2CCCCC2)N(C)C(=O)[C@H](C2CCCCC2)N(C)C(=O)C2(CCCC2)NC(=O)[C@@H]2C[C@H](c3ccccc3)CN2C(=O)[C@H](CCc2ccc(C(F)(F)F)c(Cl)c2)NC(=O)CN(C)C(=O)[C@H](CC2CCCCC2)N(C)C(=O)[C@@H]2CCCN2C(=O)CN(C)C1=O` [Compound 1096] ([NMeL]I[Sar]P[NMeCha][Sar][hPhe(3-Cl-4-CF3)][Pro(cis-4-Ph)][Ac5c][NMeChg][NMeD]-Piperidide; lactam N-11), for which the IC50 is more than 500 nM.

Consider `CC[C@H](C)[C@@H]1NC(=O)[C@H](CC(C)C)N(C)C(=O)C[C@@H](C(=O)N2CCCCC2)N(C)C(=O)[C@H](CCOC)N(C)C(=O)C2(CCCC2)NC(=O)[C@@H]2CCCN2C(=O)[C@H](CCc2ccc(C(F)(F)F)c(Cl)c2)NC(=O)CN(C)C(=O)[C@H](CC2CCCCC2)N(C)C(=O)CN(C)C(=O)CN(C)C1=O` [Compound 744] ([NMeL]I[Sar][Sar][NMeCha][Sar][hPhe(3-Cl-4-CF3)]P[Ac5c][NMehSer](Me)[NMeD]-Piperidide; lactam N-11), for which the IC50 was more than 500 nM. For the molecule `CCO[C@@H]1C[C@H]2C(=O)NC3(CCCC3)C(=O)N(C)[C@@H]([C@@H](C)CC)C(=O)N(C)[C@H](C(=O)N3CCOCC3)CC(=O)N(C)[C@@H](CC(C)C)C(=O)N[C@@H]([C@@H](C)CC)C(=O)N(C)[C@@H](C)C(=O)N3CC[C@H]3C(=O)N(C)[C@@H](Cc3ccc(C(F)(F)F)cc3)C(=O)N(C)CC(=O)N[C@@H](CCc3cc(F)c(C(F)(F)F)c(F)c3)C(=O)N2C1` [Compound 1261] ([NMeL]I[NMeA][Aze][NMePhe(4-CF3)][Sar][hPhe(3,5-F2-4-CF3)][Hyp](Et)[Ac5c][NMeI][NMeD]-Morpholide; lactam N-11), the IC50 is not above 20 nM.

Regarding `CCC[C@H]1C(=O)NC2(CCCC2)C(=O)N(C)[C@@H](C2CCCCC2)C(=O)N(C)[C@H](C(=O)N2CCCCC2)CC(=O)N(C)[C@@H](CC(C)C)C(=O)N[C@@H]([C@@H](C)CC)C(=O)N(C)CC(=O)N2CCC[C@H]2C(=O)N(C)[C@@H](CC2CCCCC2)C(=O)N(C)CC(=O)N[C@@H](CCc2ccc(C(F)(F)F)c(Cl)c2)C(=O)N1C` [Compound 392] ([NMeL]I[Sar]P[NMeCha][Sar][hPhe(3-Cl-4-CF3)][NMeNva][Ac5c][NMeChg][NMeD]-Piperidide; lactam N-11), the IC50 is more than 500 nM.
